Source: ChEMBL document CHEMBL1122789, “Synthesis and biological activity of structural analogues of the anticancer benzophenanthridine alkaloid nitidine chloride” (1984)

Legend:
Assay type in all cases: functional, Mus musculus
[1] = test system: Lewis lung carcinoma cell line; test: Evaluated for anticancer activity in survival tumor system Lewis lung (LL) carcinoma at dose 50 mg/kg
[2] = test system: Lewis lung carcinoma cell line; test: Evaluated for anticancer activity in survival tumor system Lewis lung (LL) carcinoma at dose 100 mg/kg
[3] = Evaluated for anticancer activity in tumor inhibition system CD8F1 mammary tumors at a dose of 500 mg/kg; Number of Tested survived/number of control survived (0/10)
B16 = test: Evaluated for anticancer activity in survival tumor system B16 melanocarcinoma at dose 6.25 mg/kg

COc1cc2c[n+](C)c3c(c2cc1OC)Cc1cc2c(cc1-3)OCO2.[Cl-]
T/C [1]: 119% | T/C [2]: 51% | Survival [3]: 0 | T/C (B16): 148%
